Experiments:
[1] = Reaction rate of scavengers with dicarbonyl electrophiles / LG relative to lysine; conditions: faster than lysine
Text: Under conditions such as inflammation and/or accumulated mutations, epithelial cells and adjacent immune cells express genes encoding enzymes involved in carcinogenesis, such as prostaglandin-endoperoxide synthase (PGHS2; COX2), NADPH oxidases, and spermine oxidase. The products of these enzymes (prostaglandins, O2D, and H2O2 plus 3-aminopropanal) lead to formation of dicarbonyl electrophiles: levuglandins (LGs), malondialdehyde (MDA), 4-oxo-nonenal (4-O NE), and acrolein. Electrophiles may lead to immune dysfunction and neoplastic risk by forming adducts with proteins and DNA11-15. However, the role of these reactive aldehydes in colon carcinogenesis is previously unknown. The present inventors have discovered that the level of LG-protein adducts is increased in the colon tissues of i) human ulcerative colitis (UC), colitis-associated carcinogenesis (CAC), and CRC; ii) mice treated with azoxymethane-dextran sulfate sodium (AOM-DSS), a model of CAC; and iii) transgenic mice with a tamoxifen-inducible disruption of Apc using the colon-specific, caudal type homeobox 2 (CDX2) Cre (CDX2P-CreERT2;Apcff), which recapitulates sporadic/genetically-driven CRC. […]

[2] = tested on: lysyl-LG adducts; assay: Lysyl-LG adducts in gastric tissues of H. pylori-infected mice (LC/ESI/MS/MS); format: in vivo; conditions: H. pylori infected mice treated for 8 weeks
Description: FIGS. 15A, 15B, and 15C are graphs showing C57BL/6 (A) or INS-GAS mice (B) were infected for 8 weeks with H. pylori PMSS1. Lysyl-LG adducts were measured in the gastric tissues by LC/ESI/MS/MS. *P<0.05. (C) Lysyl-LG adducts concentration was determined in AGS cells infected (plain bars) or not (open bars) with H. pylori PMSS1 for 24 h, in the presence or absence of EtSA. *P<0.05 vs. uninfected cells. § P<0.05 vs. infected cells without EtSA.
FIG. 17 is a graph showing reduction in the concentration of lysyl-levuglandin adducts in the stomachs of H. pylori infected mice treated with 2-hydroxybenzylamine for 8 weeks.
As discussed further in the Examples, the human gastric epithelial cell line AGS was infected with Hp PMSS1±10 mM EtSA. FVB/N insulin-gastrin (INS-GAS) mice and Mongolian gerbils were infected for 8 wk with Hp PMSS1 and 7.13, respectively; EtSA (0.75% in water) was given to animals beginning one wk post-infection. Lys-LG adducts, a marker of electrophile reactions, and EtSA were quantified by LC/EST/MS/MS. Histology was analyzed on H&E staining. DNA damage was evaluated by pH2AX staining. Hp colonization was quantified by culture. Mucosal immune responses were determined by RNA profiling and by Luminex assay. Mice were imaged using PET/CT with ^18F-FDG (inflammation marker) and ^18F—NaF (tumor marker). […]

[3] = tested on: oxidative damage; conditions: mice; cited from earlier work
[4] = tested on: LG-histone adducts in RAW264.7 cells; assay: LG-lysyl adduct formation on histones in RAW264.7 cells (LC/ESI/MS/MS); format: cell-based, mouse
Description: (§1) FIGS. 11A, 11B, 11C, 11D, 11E, and 11F are a series of graphs showing that LG-lysine adducts of histones are found in cells and tissue, dependent on COX-2 activity. RAW264.7 mouse macrophage (A) and A549 human lung carcinoma (C) cells were stimulated to express COX-2, then given 20 μM arachidonic acid (AA) or vehicle. A subgroup of cells was preincubated 45 min with 50 μM indomethacin. As a measure of COX activity, PGE2 was determined by GC/MS from cell media prior to lysis (B and D). Nuclei were isolated, and histones were extracted and digested to individual amino acids prior to LC/EST/MS/MS analysis. *, p<0.05; ***, p<0.001 by ANOVA followed by Tukey's post-test (n≥5). (E). Histones were extracted from nuclei of rat liver, and analyzed as above for LG-lactam adduct. COX-2 protein was analyzed by Western blotting and plotted against lactam adduct levels. Each point corresponds to 1 liver, and shown is the line of regression (r^2=0.7237). Pearson r=0.8507; two-tailed p=0.0152. (F) LC-MS chromatograph of histones isolated from a rat liver with relatively high COX-2 expression (COX-2 band intensity of 117 arbitrary units).
(A). Scavengers were screened in RAW264.7 cells for the ability to decrease LG adduct formation on histones. Scavengers used were glucosamine (GA), 3-methoxysalicylamine (3-MoSA), pentylpyridoxamine (PPM), and 5-ethylsalicylamine (EtSA). Cells were stimulated to express COX-2, pretreated 45 min. with 500 μM scavenger or vehicle (H2O), and given 20 μM AA for 1 h before lysing and extracting histones. Histone proteins were analyzed by LC/ESI/MS/MS for LG-lysyl lactam adduct, n=2. (B) Stimulated A549 cells were pretreated with 30, 300, or 1000 μM EtSA prior to 1 h with 20 μM AA, and histones analyzed for LG-lysyl adduct. *, p<0.05 by one-way ANOVA followed by Dunnett's multiple comparisons post-test (n=3-5). (C). A549 cells were stimulated, pretreated 45 min. with 1000 μM EtSA or H2O vehicle, and given 20 μM AA for 1 h. Media was analyzed by GC/MS for PGE2 (n=3). There was no effect on PGE2 production at lower doses of EtSA (data not shown).
To stimulate COX-2 expression, A549 or RAW264.7 cells were treated overnight with 5 ng/mL IL-1B (A549) or 10 μg/mL LPS and 10 U/mL IFNγ (RAW264.7) in serum-free medium. When indicated, cells were pretreated with indomethacin, aldehyde scavengers (glucosamine, 3-MoSA, PPM or EtSA), or vehicle (ethanol for indomethacin, H2O for scavengers) for 45 min, and then given 20 μM arachidonic acid (AA) or DMSO vehicle for 1 h before lysing.
Cultured cells were lysed in hypotonic buffer (10 mM Tris/10 mM NaCl/3 mM MgCl2) containing 1 mM pyridoxamine and 100 μM indomethacin to prevent the artifactual formation of LGE2 during the lytic process. […] Protein concentration was determined using the method of Bradford. […]

[5] = tested on: LG-histone adducts in A549 cells; assay: LG-lysyl adduct formation on histones in A549 cells (LC/ESI/MS/MS); format: cell-based, human; conditions: COX-2-stimulated A549, 20 μM AA, 50 μM indomethacin preincubated 45 min
Description: as §1, with “(F) LC-MS chromatograph of histones isolated from a rat liver with relatively high COX-2 expression (COX-2 band intensity of 117 arbitrary units).” left out
(A). […] Histone proteins were analyzed by LC/ESI/MS/MS for LG-lysyl lactam adduct, n=2. (B) Stimulated A549 cells were pretreated with 30, 300, or 1000 μM EtSA prior to 1 h with 20 μM AA, and histones analyzed for LG-lysyl adduct. *, p<0.05 by one-way ANOVA followed by Dunnett's multiple comparisons post-test (n=3-5). […] Media was analyzed by GC/MS for PGE2 (n=3). […]

Compound: NCc1ccccc1O [2-HOBA, 2-hydroxybenzylamine]
- rate of reaction with dicarbonyl electrophiles [1]: 3 orders of magnitude
- concentration of lysyl-levuglandin adducts in the stomachs [2]: reduction
- oxidative damage in models of hypertension and Alzheimer's disease [3]: protects mice from oxidative damage

Compound: COc1ccc2c(c1)c(CC(=O)O)c(C)n2C(=O)c1ccc(Cl)cc1 [indomethacin, reference compound]
- LG-histone adduct formation ([4]; COX-2-stimulated RAW264.7, 20 μM AA, 50 μM indomethacin preincubated 45 min): blocked
- LG-histone adduct formation [5]: blocked

Compound: pentylpyridoxamine [reference compound]
- LG adduct formation on histones ([4]; stimulated RAW264.7, 500 μM scavenger 45 min, 20 μM AA 1 h): partially inhibited

From US11696903B2, “Compounds and methods for scavenging dicarbonyl electrophiles” (VANDERBILT UNIVERSITY, priority 2019, dated 2023)
